Laboratory results taken from article PMC10305119, “Analogs of 6-Bromohypaphorine with Increased Agonist Potency for α7 Nicotinic Receptor as Anti-Inflammatory Analgesic Agents” (Marine Drugs, 2023).
“Also recorded” adds a separate entry of the source. Where two headings read alike, the source gives them in different places.

What was measured:
[1] = system: CFA-induced inflammation; assay: CFA-induced inflammation test; assay type: in vivo, ICR mice; settings: mice; for analgesia in hot plate test: 2 h after injection, 53 °C, doses 0.1, 0.5, 1 mg/kg; for oedema (paw diameter): intramuscular 0.1, 0.5, 1 mg/kg, measured 6-48 h
Description: Anti-inflammatory effect of two analogs of 6-substituted hypaphorine (6ND and 6ID) was tested in a model with subplantar administration of complete Freund’s adjuvant (CFA) in mice. CFA was injected once into the footpad to induce oedema in 24 h. Oedema was measured with an electronic calliper. Immediately after paw measurement, 6ND or 6ID was injected intramuscularly in doses 1, 0.5, and 0.1 mg/kg. Paws were measured at 6, 12, 24, and 48 h after administration of 6ND or 6ID. […] End points at 48 h of drug treatments at dose […] have been analyzed in terms of paw diameter normalized to the maximal oedemic levels in each group (Figure 6d).
Additionally, after 2 h following the drug injection, the analgesia test was conducted on the “hot plate” preheated to 53 °C. The time of withdrawal or licking of the affected paw was assessed for each animal.
The development of the inflammation and thermal hyperalgesia of the paw was induced by the injection of the oil/saline (1:1) CFA emulsion (Sigma-Aldrich, St. Louis, MO, lot # WH327536) into the subplantar surface of the hind paw of the ICR mice (20 µL/paw) 24 h before the measurement. Oedema was measured with an electronic calliper. Immediately after paw measurement, 6ND or 6ID were injected intramuscularly in doses: 1, 0.5, and 0.1 mg/kg. Paws were measured at 6, 12, 24, and 48 h after administration of 6ND or 6ID. After 2 h following the drug injection, the inflamed paw withdrawal or licking latencies to thermal stimulation were measured on a hot plate device (Hot Plate Analgesia Meter, Columbus Instruments) with a set temperature of 53 ± 0.1 °C and a cut-off time of 60 s.

[2] = molecular target: T1, human α7 nAChR (Homo sapiens, UniProt P36544); assay: Calcium fluorescence assay on α7 nAChR expressed in Neuro2a cells, in the presence of PNU120596; assay type: cell-based; settings: for α7 nAChR agonistic activity: at concentrations up to 1 mM, PNU 120,596 present
T1 construct: expressed in transfected cells; host or cells: mouse neuroblastoma Neuro2a, transient co-transfection with Ric-3 (Ric3-pCMV6-XL5, OriGene) and the calcium sensor Case12
T1 sequence (P36544 23-502): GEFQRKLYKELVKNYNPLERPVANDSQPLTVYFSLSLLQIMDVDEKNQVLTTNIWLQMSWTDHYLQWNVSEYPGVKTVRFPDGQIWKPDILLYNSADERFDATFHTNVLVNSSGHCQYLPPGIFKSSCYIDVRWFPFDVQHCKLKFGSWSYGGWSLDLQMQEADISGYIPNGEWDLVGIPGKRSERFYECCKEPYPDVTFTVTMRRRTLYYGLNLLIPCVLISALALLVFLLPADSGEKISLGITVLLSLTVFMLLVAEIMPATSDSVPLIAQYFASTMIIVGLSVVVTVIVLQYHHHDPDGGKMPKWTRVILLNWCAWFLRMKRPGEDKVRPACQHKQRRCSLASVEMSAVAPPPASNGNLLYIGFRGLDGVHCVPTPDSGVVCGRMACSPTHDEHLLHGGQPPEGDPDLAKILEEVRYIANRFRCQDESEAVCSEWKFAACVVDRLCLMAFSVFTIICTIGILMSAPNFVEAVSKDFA
Description: A panel of the synthesized compounds was tested to determine their activity on α7 nAChR by fluorescence detection of cytoplasmic calcium rise (Figure 2a).
Mouse neuroblastoma Neuro2a cells were purchased from the Russian collection of cell cultures (Institute of Cytology, Russian Academy of Sciences, Saint Petersburg, Russia). Cells were cultured in Dulbecco’s modified Eagle’s essential medium (Paneco, Moscow, Russia) supplemented with 10% fetal bovine serum (Sigma, St. Louis, MO, USA). The cells one day before transfection were subcultured and plated at a density of 10,000 cells per well on a 96-well plate. The next day, Neuro2a cells were transiently transfected with plasmids coding α7 nAChR (human α7 nAChR-pCEP4) or its mutants, the chaperone Ric-3 (Ric3-pCMV6-XL5, OriGene, USA) and a fluorescent calcium sensor Case12 (pCase12-cyto vector, Evrogen, Russia) in molar ratio 4:1:1. Lipofectamine transfection protocol (Invitrogen, Waltham, MA, USA) was performed as recommended by the manufacturer. Transfected cells were grown at 37 °C in a CO2 incubator for 48 h.
Calcium […] assay was performed as described previously. Briefly, Transfected Neuro2a cells were grown on black 96-well plates (Corning, Somerville, MA, USA) at 37 °C in a CO2 incubator for 72 h, then growth medium was substituted with buffer containing 140 mM NaCl, 2 mM CaCl2, 2.8 mM KCl, 4 mM MgCl2, 20 mM HEPES, 10 mM glucose; pH 7.4.
Cells were incubated with the α7 nAChR positive allosteric modulator PNU120596 (10 μM, Tocris, Bristol, UK) for 20 min at room temperature before the addition of tested compounds. Plates were measured in microplate reader Hidex Sence (Hidex, Turku, Finland) using excitation at 485 nm and emission at 535 ± 10 nm. Fluorescence peak intensity in each well was expressed as a percentage of the maximal obtained response. Data files were analysed using Hidex Sence software (Hidex, Turku, Finland). Controls were run in the presence of 4 μM α-cobratoxin.
The R statistical programming environment “https://www.r-project.org/” (accessed on 16 June 2023) was used to analyze the results. Base R graphics and ggplot2 [54] graphical library were used for the data visualisation. Dose-response curves were fitted using “nlm” function and the following equation: response ~ (100/1 + (EC50/x)^n), where x denotes base 10 logarithm of ligand concentration in moles per liter (normalized to 1M) and n is the Hill coefficient. Libraries “rgl” “https://CRAN.R-project.org/package=rgl” (accessed on 16 May 2023) and “barplot3d” “https://cran.r-project.org/src/contrib/Archive/barplot3d/” (accessed on 16 May 2023) were used to generate the 3D bar chart shown on Figure 2b.
Figure 2 In vitro activity determination of the synthesized compounds. […] The receptor activation was detected as an increase in fluorescent signal in cell cytoplasm by fluorescence microscopy or as total fluorescence of the well in 96-well plate reader setup. Normalized fluorescence amplitude was plotted against base 10 logarithm of mole per liter concentration of the tested agonist and EC50 values were than calculated using dose-response equation. […] Substitutions in the 6th position of the indole ring (designated as X) were halogens (green shadow), hydrogen bond acceptors (yellow shadow) or hydrogen bond donors (blue shadow). Carboxy group modifications were comprised by free acid (Q = OH), ethers (Q = OCH3, OC2H5), and amides (Q = NH2, NHCH3).

COC(=O)[C@@H](Cc1c[nH]c2cc(I)ccc12)[N+](C)(C)C [Compound 1, (D)-6-iodohypaphorine methyl ester]
analgesia in hot plate test ([1]; listed as 6ID): effective in the hot plate test at 0.5 as well as at 1 mg/kg; also recorded: at doses 0.5 and 1 mg/kg showed significant analgesia
oedema (paw diameter) ([1]; listed as 6ID): significantly reduced by 6ID at 0.5 mg/kg starting from 12 h of treatment; also recorded: effective against oedema at doses 0.5 and 1 mg/kg
EC50 [2]: 0.61 µM

COC(=O)C(Cc1c[nH]c2cc([N+](=O)[O-])ccc12)[N+](C)(C)C (stereo not drawn) [Compound 5, methyl ester of 6-nitrohypaphorine]
analgesia in hot plate test ([1]; listed as 6ND): significant analgesia in hot plate test only at 0.1 mg/kg; also recorded: at a dose of 0.1 mg/kg has a pronounced analgesic effect, but higher doses did not show a difference from the control group
EC50 ([2]; human α7 nAChR in Neuro2a cells, PNU120596 10 μM present, read-out: EC50): 14 µM

C[N+](C)(C)[C@H](Cc1c[nH]c2ccccc12)C(=O)[O-] [Compound 16, L-hypaphorine, reference compound]
analgesia in hot plate test [1]: analgesia in hot plate test at all tested doses from 0.1 to 1 mg/kg
oedema reduction at 48 h end point, normalized to maximal oedema ([1]; dose 0.5, 48 h): markedly less effective reduction of oedema than 6ND and 6ID
oedema (paw diameter) ([1]; listed as Hypaphorine): demonstrated anti-oedemic properties
oedema (paw diameter) ([1]; listed as hypaphorine): significantly reduced edema in a concentration-dependent manner at doses 0.1–1 mg/kg
α7 nAChR agonistic activity ([2]; listed as Hypaphorine): did not show α7 nAChR agonistic activity
α7 nAChR agonistic activity ([2]; listed as L-hypaphorine): failed to activate α7 nAChR
EC50 ([2]; human α7 nAChR in Neuro2a cells, PNU120596 10 μM present): no agonistic activity
